Laboratory results published in patent US20250152585A1, “PHARMACEUTICAL COMPOUND” (Duke Street Bio Limited, priority 2022, published 2025).
Like-named read-outs stand apart in the source and are kept apart here.

Assays:
[1] = target: T1, N-terminally FLAG-tagged PARP2 (amino acids 1-583) (Homo sapiens, UniProt Q9UGN5); experiment: PARP2 probe displacement HTRF assay; format: binding; details: binned Kd
T1 construct: N-terminally FLAG-tagged PARP2 (amino acids 1-583)
Experimental: Data analysis was performed identical as for PARP1.

[2] = target: T2, full length N-terminally FLAG-tagged PARP1 (Homo sapiens, UniProt P09874); experiment: PARP1 probe displacement HTRF assay; details: for Selectivity: PARP1 over PARP2, ratio Kd (PARP2)/Kd (PARP1); for Kd: binned Kd
[3] = target: T2, full length N-terminally FLAG-tagged PARP1; experiment: PARP1 biochemical DELFIA assay (auto-PARylation); set-up: recombinant full length human N-terminally FLAG-tagged PARP1
[4] = read-out: PARP1 HTRF, PARP1 probe displacement HTRF
[5] = binned IC50, PARP1 biochemical DELFIA assay
[6] = read-out: PARP1 HTRF, probe displacement HTRF
[7] = binned IC50, biochemical auto-PARylation assay
[8] = PARP1 HTRF, PARP1 probe displacement HTRF

T2 sequence (P09874 whole entry): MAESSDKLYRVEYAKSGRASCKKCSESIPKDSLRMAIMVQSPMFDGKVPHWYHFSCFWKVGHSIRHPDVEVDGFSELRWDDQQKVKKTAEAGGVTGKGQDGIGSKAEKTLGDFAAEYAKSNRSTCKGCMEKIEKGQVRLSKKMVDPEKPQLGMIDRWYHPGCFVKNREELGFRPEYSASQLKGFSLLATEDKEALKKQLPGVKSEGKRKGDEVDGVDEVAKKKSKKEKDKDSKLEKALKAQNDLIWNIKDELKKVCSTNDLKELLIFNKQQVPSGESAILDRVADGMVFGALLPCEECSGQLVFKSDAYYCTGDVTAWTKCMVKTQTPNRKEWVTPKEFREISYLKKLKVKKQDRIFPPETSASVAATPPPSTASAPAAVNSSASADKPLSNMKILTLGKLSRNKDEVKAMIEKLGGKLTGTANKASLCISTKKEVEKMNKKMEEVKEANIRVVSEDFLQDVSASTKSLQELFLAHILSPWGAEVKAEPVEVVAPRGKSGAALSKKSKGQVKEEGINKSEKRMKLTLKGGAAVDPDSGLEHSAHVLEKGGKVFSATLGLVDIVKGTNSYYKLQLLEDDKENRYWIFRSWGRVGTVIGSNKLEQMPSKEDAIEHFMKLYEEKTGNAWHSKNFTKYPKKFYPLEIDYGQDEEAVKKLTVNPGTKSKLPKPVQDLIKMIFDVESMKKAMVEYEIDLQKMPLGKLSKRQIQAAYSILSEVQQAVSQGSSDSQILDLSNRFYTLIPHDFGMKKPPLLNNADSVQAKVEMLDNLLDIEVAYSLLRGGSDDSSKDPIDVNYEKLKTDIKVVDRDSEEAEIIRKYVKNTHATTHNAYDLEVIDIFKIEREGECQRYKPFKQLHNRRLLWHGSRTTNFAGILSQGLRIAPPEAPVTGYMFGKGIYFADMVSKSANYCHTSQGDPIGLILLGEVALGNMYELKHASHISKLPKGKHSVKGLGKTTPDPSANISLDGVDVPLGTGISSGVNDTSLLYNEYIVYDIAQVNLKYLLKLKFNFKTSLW
T1 sequence (Q9UGN5 whole entry, the tested form may be a part): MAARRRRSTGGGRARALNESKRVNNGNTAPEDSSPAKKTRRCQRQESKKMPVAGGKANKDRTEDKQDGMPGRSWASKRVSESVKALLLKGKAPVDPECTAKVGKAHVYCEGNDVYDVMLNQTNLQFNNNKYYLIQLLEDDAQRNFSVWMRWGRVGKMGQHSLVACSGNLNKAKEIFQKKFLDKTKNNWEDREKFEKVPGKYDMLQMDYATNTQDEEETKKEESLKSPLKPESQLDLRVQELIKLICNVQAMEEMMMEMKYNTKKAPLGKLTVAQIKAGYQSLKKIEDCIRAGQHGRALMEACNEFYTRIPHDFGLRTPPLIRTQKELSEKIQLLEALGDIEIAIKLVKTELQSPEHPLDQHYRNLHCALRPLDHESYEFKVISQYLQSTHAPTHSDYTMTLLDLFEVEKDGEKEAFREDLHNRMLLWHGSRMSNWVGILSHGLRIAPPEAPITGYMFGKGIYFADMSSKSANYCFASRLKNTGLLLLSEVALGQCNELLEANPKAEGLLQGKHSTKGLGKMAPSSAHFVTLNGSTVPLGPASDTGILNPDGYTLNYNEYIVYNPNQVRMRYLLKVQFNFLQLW

CCc1ccc(C2CCN(C3CCN(c4ccc(C(N)=O)nc4)CC3)C2)[nH]c1=O (racemic) [Compound 166rac]
Kd ([1]; PARP2 probe displacement HTRF): 1000 to 10000 nM
Selectivity ([2]; probe displacement HTRF): +++ (+++ indicate a value of at least 100)
Kd [2, 4]: < 10 nM
IC50 [3, 5]: < 10 nM

N#Cc1ccc(N2CCC(N3CCC(c4cc5cccc(F)c5c(=O)[nH]4)C3)CC2)c(Cl)c1 (single isomer, unassigned) [Compound 378a]
Kd ([1]; probe displacement HTRF): 100 to 1000 nM
Selectivity ([2]; probe displacement HTRF): +++ (+++ indicate a value of at least 100)
Kd [2, 6]: < 10 nM
IC50 [3, 7]: < 10 nM

CNC(=O)c1ccc(N2CCC(N3CCC(c4nc5[nH]nc(C(F)(F)F)c5c(=O)[nH]4)C3)CC2)cn1 (single isomer, unassigned) [Compound 162a, N-methyl-5-(4-(3-(4-oxo-3-(trifluoromethyl)-4,5-dihydro-1H-pyrazolo[3,4-d]pyrimidin-6-yl)pyrrolidin-1-yl)piperidin-1-yl)picolinamide]
Kd ([1]; PARP2 probe displacement HTRF): 100 to 1000 nM
Kd [2, 8]: 10 to 100 nM
Selectivity ([2]; probe displacement HTRF): − (− indicates a value of less than 10)
IC50 [3, 5]: 10 to 100 nM

CNC(=O)c1ccc(N2CCC(N3CCC(c4cc5c(c(C(F)(F)F)nn5C)c(=O)[nH]4)C3)CC2)c(F)n1 (single isomer, unassigned) [Compound 407a]
Kd ([1]; probe displacement HTRF): 100 to 1000 nM
Selectivity ([2]; probe displacement HTRF): ++ (++ indicates a value of 50 to less than 100)
Kd [2, 6]: < 10 nM
IC50 [3, 7]: 10 to 100 nM

O=c1[nH]c2ccc(N3CCC(N4CCC(c5cc6ccccc6c(=O)[nH]5)C4)CC3)cc2[nH]1 (racemic) [Compound 413rac]
Kd ([1]; probe displacement HTRF): 100 to 1000 nM
Selectivity ([2]; probe displacement HTRF): +++ (+++ indicate a value of at least 100)
Kd [2, 6]: < 10 nM
IC50 [3, 7]: < 10 nM

CNC(=O)c1ccc(N2CCC(N3CCC(c4ccc(CC(F)F)c(=O)[nH]4)C3)CC2)cn1 (racemic) [Compound 391rac]
Kd ([1]; probe displacement HTRF): 1000 to 10000 nM
Selectivity ([2]; probe displacement HTRF): +++ (+++ indicate a value of at least 100)
Kd [2, 6]: < 10 nM
IC50 [3, 7]: < 10 nM

CNC(=O)c1ccc(N2CCC(N3CCC(c4ccc(CCF)c(=O)[nH]4)C3)CC2)cn1 (racemic) [Compound 231rac]
Kd ([1]; probe displacement HTRF): 1000 to 10000 nM
Selectivity ([2]; probe displacement HTRF): +++ (+++ indicate a value of at least 100)
Kd [2, 6]: < 10 nM
IC50 [3, 7]: < 10 nM

CCc1ccc(C2CCCN(C3CCN(c4ccc(C(=O)NC)nc4)CC3)C2)[nH]c1=O (single isomer, unassigned) [Compound 53a, 5-{4-[3-(5-ethyl-6-oxo-1H-pyridin-2-yl)piperidin-1-yl]piperidin-1-yl}-N-methylpyridine-2-carboxamide]
Kd ([1]; PARP2 probe displacement HTRF): 1000 to 10000 nM
Kd [2, 8]: < 10 nM
Selectivity ([2]; probe displacement HTRF): +++ (+++ indicate a value of at least 100)
IC50 [3, 5]: < 10 nM

CNC(=O)c1ccc(N2CCC(N3CCC(c4cc5cccc(F)c5c(=O)[nH]4)C3)CC2)c(F)c1 (single isomer, unassigned) [Compound 371b]
Kd ([1]; probe displacement HTRF): 1000 to 10000 nM
Selectivity ([2]; probe displacement HTRF): ++ (++ indicates a value of 50 to less than 100)
Kd [2, 6]: 10 to 100 nM
IC50 [3, 7]: 10 to 100 nM

CNC(=O)c1ccc(N2CC(N3CCC(c4nc5ccccc5c(=O)[nH]4)C3)C2)cn1 (single isomer, unassigned) [Compound 61a]
Kd ([1]; PARP2 probe displacement HTRF): 1000 to 10000 nM
Selectivity ([2]; probe displacement HTRF): + (+ indicates a value of 10 to less than 50)
Kd [2, 4]: 10 to 100 nM
IC50 [3, 5]: 100 to 1000 nM

CNC(=O)c1ccc(N2CCC(N3CCC(c4nc5ncccc5c(=O)[nH]4)C3)CC2)cn1 (single isomer, unassigned) [Compound 60a]
Kd ([1]; PARP2 probe displacement HTRF): > 10000 nM
Selectivity ([2]; probe displacement HTRF): +++ (+++ indicate a value of at least 100)
Kd [2, 4]: < 10 nM
IC50 [3, 5]: < 10 nM

CNC(=O)c1ccc(N2CCC(N3CCC(c4cc5cccc(OC)c5c(=O)[nH]4)C3)CC2)cn1 (single isomer, unassigned) [Compound 249a]
Kd ([1]; probe displacement HTRF): > 10000 nM
Selectivity ([2]; probe displacement HTRF): − (− indicates a value of less than 10)
Kd [2, 6]: 1000 to 10000 nM
IC50 [3, 7]: 1000 to 10000 nM

CNC(=O)c1ccc(N2CCC(N3CCC(c4cc5nccc(N)c5c(=O)[nH]4)C3)CC2)cn1 (racemic) [Compound 200rac]
Kd ([1]; PARP2 probe displacement HTRF): > 10000 nM
Selectivity ([2]; probe displacement HTRF): +++ (+++ indicate a value of at least 100)
Kd [2, 4]: 10 to 100 nM
IC50 [3, 5]: 10 to 100 nM

CNC(=O)c1ccc(N2CCC(N3CC4(c5nc6c(c(=O)[nH]5)CCCC6)CC3C4)CC2)cn1 [Compound 361, N-methyl-5-(4-(4-(4-oxo-3,4,5,6,7,8-hexahydroquinazolin-2-yl)-2-azabicyclo[2.1.1]hexan-2-yl)piperidin-1-yl)picolinamide]
Kd ([1]; probe displacement HTRF): 100 to 1000 nM
Kd ([2]; PARP1 HTRF, probe displacement HTRF): < 10 nM
Selectivity ([2]; probe displacement HTRF): +++ (+++ indicate a value of at least 100)
IC50 [3, 7]: < 10 nM

CCc1cc(C)c(C2CCN(C3CCN(c4ccc(C(=O)NC)nc4)CC3)C2)[nH]c1=O (single isomer, unassigned) [Compound 363b]
Kd ([1]; probe displacement HTRF): 1000 to 10000 nM
Selectivity ([2]; probe displacement HTRF): +++ (+++ indicate a value of at least 100)
Kd [2, 6]: < 10 nM
IC50 [3, 7]: < 10 nM

CNC(=O)c1cnc(N2CCC(N3CCC(c4cc5ccccc5c(=O)[nH]4)C3)CC2)s1 (racemic) [Compound 253rac]
Kd ([1]; probe displacement HTRF): > 10000 nM
Selectivity ([2]; probe displacement HTRF): + (+ indicates a value of 10 to less than 50)
Kd [2, 6]: 10 to 100 nM
IC50 [3, 7]: 10 to 100 nM

CNC(=O)c1ccc(N2CCC(N3CCC(c4cc5c(F)cc(F)cc5c(=O)[nH]4)C3)CC2)cn1 (single isomer, unassigned) [Compound 186a]
Kd ([1]; PARP2 probe displacement HTRF): 100 to 1000 nM
Selectivity ([2]; probe displacement HTRF): +++ (+++ indicate a value of at least 100)
Kd [2, 4]: < 10 nM
IC50 [3, 5]: < 10 nM

CNC(=O)c1ccc(N2CCC(N3CCC(c4nc5ccccc5c(=O)[nH]4)C3)CC2)c(C(F)(F)F)n1 (single isomer, unassigned) [Compound 139b]
Kd ([1]; PARP2 probe displacement HTRF): 1000 to 10000 nM
Selectivity ([2]; probe displacement HTRF): +++ (+++ indicate a value of at least 100)
Kd [2, 4]: 10 to 100 nM
IC50 [3, 5]: 10 to 100 nM

CNC(=O)c1ccc(N2CCC(N3CCC(c4nc(C)cc(=O)[nH]4)C3)CC2)cn1 (single isomer, unassigned) [Compound 97b]
Kd ([1]; PARP2 probe displacement HTRF): > 10000 nM
Selectivity ([2]; probe displacement HTRF): − (− indicates a value of less than 10)
Kd [2, 4]: 100 to 1000 nM
IC50 [3, 5]: 100 to 1000 nM

O=c1[nH]c(C2CCN(C3CCN(c4ccc(-c5nnn[nH]5)nc4)CC3)C2)nc2ccccc12 (racemic) [Compound 263rac]
Kd ([1]; probe displacement HTRF): 100 to 1000 nM
Selectivity ([2]; probe displacement HTRF): − (− indicates a value of less than 10)
Kd [2, 6]: 100 to 1000 nM
IC50 [3, 7]: 10 to 100 nM

CS(=O)(=O)NC(=O)c1ccc(N2CCC(N3CCC(c4cc5ccccc5c(=O)[nH]4)C3)CC2)cn1 (racemic) [Compound 414rac]
Kd ([1]; probe displacement HTRF): 100 to 1000 nM
Selectivity ([2]; probe displacement HTRF): ++ (++ indicates a value of 50 to less than 100)
Kd [2, 6]: 10 to 100 nM
IC50 [3, 7]: 10 to 100 nM

CNC(=O)c1ccc(N2CCC(N3CCCC(O)(c4nc5ccccc5c(=O)[nH]4)C3)CC2)cn1 (single isomer, unassigned) [Compound 327b]
Kd ([1]; probe displacement HTRF): > 10000 nM
Selectivity ([2]; probe displacement HTRF): − (− indicates a value of less than 10)
Kd [2, 6]: 100 to 1000 nM
IC50 [3, 7]: 100 to 1000 nM

CNC(=O)c1ccc(N2CCC(N3CCCC(c4ccc(C(C)C)c(=O)[nH]4)C3)CC2)cn1 (racemic) [Compound 132rac]
Kd ([1]; PARP2 probe displacement HTRF): > 10000 nM
Selectivity ([2]; probe displacement HTRF): +++ (+++ indicate a value of at least 100)
Kd [2, 4]: 10 to 100 nM
IC50 [3, 5]: 10 to 100 nM

CNC(=O)c1ccc(N2CCC(N3CCC(c4nc5sc(C)c(C)c5c(=O)[nH]4)C3)CC2)cn1 (single isomer, unassigned) [Compound 221a]
Kd ([1]; probe displacement HTRF): 100 to 1000 nM
Selectivity ([2]; probe displacement HTRF): + (+ indicates a value of 10 to less than 50)
Kd [2, 6]: 10 to 100 nM
IC50 [3, 7]: 10 to 100 nM

CS(=O)(=O)Nc1ccc(N2CCC(N3CCC(c4cc5ccccc5c(=O)[nH]4)C3)CC2)cn1 (single isomer, unassigned) [Compound 252b]
Kd ([1]; probe displacement HTRF): 100 to 1000 nM
Selectivity ([2]; probe displacement HTRF): + (+ indicates a value of 10 to less than 50)
Kd [2, 6]: 10 to 100 nM
IC50 [3, 7]: 10 to 100 nM

CNC(=O)c1ccc(N2CCC(N3CCC(C)(c4nc5ccccc5c(=O)[nH]4)C3)CC2)cn1 (single isomer, unassigned) [Compound 67b]
Kd ([1]; PARP2 probe displacement HTRF): 1000 to 10000 nM
Selectivity ([2]; probe displacement HTRF): + (+ indicates a value of 10 to less than 50)
Kd [2, 4]: 100 to 1000 nM
IC50 [3, 5]: 100 to 1000 nM
